According to ChEMBL document CHEMBL1201862, “PubChem BioAssay data set” (2004):
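Exposure lasted 48 hours, with cells grown in 96-well plates and compounds tested at five concentrations. GI50 marks 50% less growth.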 The source made the active and inactive calls. Cut-off read from the data, not from the text of the source: active = GI50 up to about 1.1 µM and inactive = higher.

Experiments:
Assay in all cases: growth of human tumour cells (NCI), 48 h
786-0 = system: 786-0
CCRF-CEM = system: CCRF-CEM
COLO 205 = system: COLO 205
HOP-62 = system: HOP-62
MDA-N = system: MDA-N
MOLT-4 = system: MOLT-4
Malme-3M = system: Malme-3M
NCI/ADR-RES = system: NCI/ADR-RES
OVCAR-3 = system: OVCAR-3
PC-3 = system: PC-3
RXF 393 = system: RXF 393
SF-268 = system: SF-268
SF-539 = system: SF-539
SK-MEL-2 = system: SK-MEL-2
SK-OV-3 = system: SK-OV-3
SN12C = system: SN12C
T47D = system: T47D
UACC-62 = system: UACC-62
M19-MEL = system: M19-MEL

SMILES	GI50 (786-0)	GI50 (CCRF-CEM)	GI50 (COLO 205)	GI50 (HOP-62)	GI50 (MDA-N)	GI50 (MOLT-4)	GI50 (Malme-3M)	GI50 (NCI/ADR-RES)	GI50 (OVCAR-3)	GI50 (PC-3)	GI50 (RXF 393)	GI50 (SF-268)	GI50 (SF-539)	GI50 (SK-MEL-2)	GI50 (SK-OV-3)	GI50 (SN12C)	GI50 (T47D)	GI50 (UACC-62)	GI50 (M19-MEL)
CN(C)c1ccc(C=c2c3ccccc3n3c2c2ccccc2[n+]3C)cc1	0.301 µM (active)	0.15 µM (active)	0.0682 µM (active)	0.942 µM (active)	0.526 µM (active)	0.493 µM (active)	0.392 µM (active)	3.93 µM (inactive)	0.239 µM (active)	0.353 µM (active)	1.52 µM (inactive)	0.425 µM (active)	0.513 µM (active)	0.258 µM (active)	2.64 µM (inactive)	0.518 µM (active)	0.248 µM (active)	0.305 µM (active)	–
CC(=O)C(=C(I)I)c1ccccc1	19.7 µM (inactive)	11.5 µM (inactive)	15.5 µM (inactive)	20.9 µM (inactive)	15.2 µM (inactive)	13.4 µM (inactive)	12.3 µM (inactive)	21.1 µM (inactive)	16.7 µM (inactive)	31.5 µM (inactive)	20 µM (inactive)	25.1 µM (inactive)	21.1 µM (inactive)	21.8 µM (inactive)	41.9 µM (inactive)	13.3 µM (inactive)	20.4 µM (inactive)	25.5 µM (inactive)	–
CC(C)(C)c1ccc(OCCOCCOc2ccc(C(C)(C)C)cc2S(N)(=O)=O)c(S(N)(=O)=O)c1	> 100 µM (inactive)	> 100 µM (inactive)	> 100 µM (inactive)	> 100 µM (inactive)	–	4.46 µM (inactive)	28.5 µM (inactive)	–	> 100 µM (inactive)	–	20.2 µM (inactive)	97.3 µM (inactive)	> 100 µM (inactive)	67.8 µM (inactive)	> 100 µM (inactive)	> 100 µM (inactive)	–	52.1 µM (inactive)	> 100 µM (inactive)
O=C1/C(=C\c2ccccc2)c2ccccc2N1Cc1ccccc1	7.01 µM (inactive)	3.15 µM (inactive)	16.6 µM (inactive)	13.1 µM (inactive)	5.18 µM (inactive)	2.67 µM (inactive)	6.92 µM (inactive)	10.6 µM (inactive)	3.99 µM (inactive)	11.1 µM (inactive)	10.4 µM (inactive)	9.25 µM (inactive)	> 10 µM (inactive)	12.2 µM (inactive)	11.1 µM (inactive)	11.9 µM (inactive)	6.61 µM (inactive)	7.1 µM (inactive)	–
[N-]=[N+]=NC[C@H]1OCO[C@H](CN=[N+]=[N-])[C@H]2OCCOCCOc3ccccc3OCCOCCO[C@@H]21	> 100 µM (inactive)	> 100 µM (inactive)	> 100 µM (inactive)	> 100 µM (inactive)	> 100 µM (inactive)	> 100 µM (inactive)	> 100 µM (inactive)	> 100 µM (inactive)	> 100 µM (inactive)	> 100 µM (inactive)	> 100 µM (inactive)	> 100 µM (inactive)	> 100 µM (inactive)	> 100 µM (inactive)	> 100 µM (inactive)	> 100 µM (inactive)	> 100 µM (inactive)	> 100 µM (inactive)	–
Oc1ccccc1/C=N/c1ccc(-c2nc3ccccc3s2)cc1	29.2 µM (inactive)	6.89 µM (inactive)	19.6 µM (inactive)	19.1 µM (inactive)	29.6 µM (inactive)	22.7 µM (inactive)	37.1 µM (inactive)	25.6 µM (inactive)	20.6 µM (inactive)	18.7 µM (inactive)	28.5 µM (inactive)	23.2 µM (inactive)	30.8 µM (inactive)	21.3 µM (inactive)	27.2 µM (inactive)	29.3 µM (inactive)	10.4 µM (inactive)	21.2 µM (inactive)	–
O=C1CS(=O)(=O)C(c2cccc(Oc3ccccc3)c2)N1c1ccccc1 (configuration not stated)	17.8 µM (inactive)	34.8 µM (inactive)	20 µM (inactive)	36.7 µM (inactive)	17.9 µM (inactive)	20.4 µM (inactive)	20.5 µM (inactive)	22 µM (inactive)	20.7 µM (inactive)	19.1 µM (inactive)	19.3 µM (inactive)	23.7 µM (inactive)	21.3 µM (inactive)	16.1 µM (inactive)	35.2 µM (inactive)	19.4 µM (inactive)	15.3 µM (inactive)	12.4 µM (inactive)	–
NS(=O)(=O)c1ccc(NNc2c3ccccc3nc3c(C(=O)Nc4ccc(S(=O)(=O)Nc5ncccn5)cc4)cccc23)cc1	> 25 µM (inactive)	> 25 µM (inactive)	> 25 µM (inactive)	> 25 µM (inactive)	> 25 µM (inactive)	> 25 µM (inactive)	> 25 µM (inactive)	> 25 µM (inactive)	> 25 µM (inactive)	> 25 µM (inactive)	> 25 µM (inactive)	> 25 µM (inactive)	> 25 µM (inactive)	> 25 µM (inactive)	> 25 µM (inactive)	> 25 µM (inactive)	> 25 µM (inactive)	> 25 µM (inactive)	–
C=C(Br)CN(C#N)CC(=C)Br	> 100 µM (inactive)	> 100 µM (inactive)	> 100 µM (inactive)	> 100 µM (inactive)	> 100 µM (inactive)	> 100 µM (inactive)	> 100 µM (inactive)	> 100 µM (inactive)	> 100 µM (inactive)	> 100 µM (inactive)	> 100 µM (inactive)	> 100 µM (inactive)	> 100 µM (inactive)	> 100 µM (inactive)	> 100 µM (inactive)	> 100 µM (inactive)	> 100 µM (inactive)	> 100 µM (inactive)	–
O=c1n(C2CCCCC2)c(=C(Cl)Cl)c(=C(Cl)Cl)n1C1CCCCC1	> 100 µM (inactive)	> 100 µM (inactive)	> 100 µM (inactive)	> 100 µM (inactive)	–	> 100 µM (inactive)	> 100 µM (inactive)	–	> 100 µM (inactive)	–	> 100 µM (inactive)	> 100 µM (inactive)	> 100 µM (inactive)	> 100 µM (inactive)	> 100 µM (inactive)	> 100 µM (inactive)	–	> 100 µM (inactive)	> 100 µM (inactive)
CCOCC(=O)N[C@H]1CCc2cc(OC(=O)COCC)c(OC)c(OC)c2-c2ccc(SC)c(=O)cc21	0.036 µM (active)	0.0231 µM (active)	0.0219 µM (active)	0.0533 µM (active)	0.0022 µM (active)	0.0269 µM (active)	0.0138 µM (active)	1.87 µM (inactive)	0.01 µM (active)	0.0224 µM (active)	0.021 µM (active)	0.0384 µM (active)	0.0172 µM (active)	0.019 µM (active)	0.00867 µM (active)	0.0625 µM (active)	> 10 µM (inactive)	0.0102 µM (active)	–
Cn1c2c3ccc(Cl)cc3nc-2c(Cl)c2ccccc21	15.5 µM (inactive)	3.86 µM (inactive)	12.2 µM (inactive)	16.4 µM (inactive)	20.2 µM (inactive)	19 µM (inactive)	18.2 µM (inactive)	24.8 µM (inactive)	14 µM (inactive)	13.7 µM (inactive)	16.6 µM (inactive)	14.2 µM (inactive)	19.9 µM (inactive)	21.4 µM (inactive)	49.4 µM (inactive)	14.4 µM (inactive)	11.9 µM (inactive)	20.4 µM (inactive)	–
Cn1c(SCc2c[nH]c3ccccc23)nnc1-c1ccc(Cl)cc1Cl	24.4 µM (inactive)	12.8 µM (inactive)	14 µM (inactive)	6.1 µM (inactive)	4.44 µM (inactive)	7.36 µM (inactive)	18.9 µM (inactive)	6.07 µM (inactive)	12.1 µM (inactive)	12.1 µM (inactive)	12.2 µM (inactive)	23.9 µM (inactive)	3.14 µM (inactive)	12.3 µM (inactive)	15.9 µM (inactive)	17.1 µM (inactive)	12.7 µM (inactive)	12 µM (inactive)	–
CC(NC(=O)C(N)CC(=O)O)NC(=O)C1CCC1 (configuration not stated)	> 100 µM (inactive)	> 100 µM (inactive)	> 100 µM (inactive)	> 100 µM (inactive)	> 100 µM (inactive)	> 100 µM (inactive)	> 100 µM (inactive)	> 100 µM (inactive)	> 100 µM (inactive)	> 100 µM (inactive)	> 100 µM (inactive)	> 100 µM (inactive)	> 100 µM (inactive)	> 100 µM (inactive)	28.2 µM (inactive)	> 100 µM (inactive)	> 100 µM (inactive)	> 100 µM (inactive)	–
C[O+]=C1C=CC(=C2SC(c3ccccc3)(c3ccccc3)c3ccccc32)C=C1.[O-][Cl+3]([O-])([O-])[O-]	17.2 µM (inactive)	26.4 µM (inactive)	17.3 µM (inactive)	28 µM (inactive)	21.1 µM (inactive)	13.1 µM (inactive)	18.8 µM (inactive)	30.1 µM (inactive)	16.1 µM (inactive)	20.9 µM (inactive)	11.8 µM (inactive)	29 µM (inactive)	18.7 µM (inactive)	15.6 µM (inactive)	38 µM (inactive)	20 µM (inactive)	20.8 µM (inactive)	18.7 µM (inactive)	–
Oc1ccc2ccccc2c1Cc1c(O)ccc2ccccc12	21.1 µM (inactive)	19.3 µM (inactive)	17.9 µM (inactive)	16.4 µM (inactive)	11.6 µM (inactive)	15 µM (inactive)	13.2 µM (inactive)	15.2 µM (inactive)	11.2 µM (inactive)	17.5 µM (inactive)	16 µM (inactive)	14 µM (inactive)	21.4 µM (inactive)	18.6 µM (inactive)	17.5 µM (inactive)	16.2 µM (inactive)	20.3 µM (inactive)	14 µM (inactive)	–
